In data set [1] the test system is human embryonic kidney cell line HEK-293. The data set can be described thus: Toxicological testing, viability by resazurin reduction after 24 h. Type of data set: cell-based. Conditions: HEK-293, 0-100 μM tested. Here is the method:
Example 13: Toxicological Testing with Human Embryonic Kidney Cell Line HEK-293
Compounds 3, 5, and 10 were toxicologically tested with human embryonic kidney cell line HEK-293 at concentrations varying from 0 to 100 μM (cf. FIGS. 1 to 3). The viability was measured by resazurin reduction after 24 h.

Another data set relates to S. aureus USA 300 (MRSA). Nature of the data set: Minimum inhibitory concentration (MIC), 96-well plates, serial dilutions in LB medium. Format: cell-based. Conditions: Staphylococcus aureus, read-out: Minimum inhibitory concentration (MIC). The text has this:
(§1) Example 12: Determination of the Minimum Inhibitory Concentration (MIC) with Non-Pathogenic E. coli and B. subtilis and/or Pathogenic Strains of S. aureus Including Three MRSA Strains (USA 300, Mu50 and DSM18827) as Well as the Pathogenic Fungus Candida albicans
(§2) Minimum inhibitory concentrations (MIC) for compounds 1 to 11 with non-pathogenic E. coli and B. subtilis and/or pathogenic strains of S. aureus including three MRSA strains (USA 300, Mu50 and DSM18827) as well as the pathogenic fungus Candida albicans were determined in 96-well plates with serial dilutions in LB medium.
Example 21: Determination of the Minimum Inhibitory Concentration (MIC) for the Compounds Represented by the Formulas (14) and (16) with the Pathogenic USA 300 (MRSA) Strain of S. aureus
Minimum inhibitory concentrations (MIC) for the compounds represented by the Formulas (14) and (16) with the pathogenic MRSA strains of S. aureus USA 300 were determined in 96-well plates with serial dilutions in LB medium.

Another data set deals with S. aureus Mu50 (MRSA). The description is as above. Format: cell-based. Conditions: Staphylococcus aureus, read-out: Minimum inhibitory concentration (MIC).
Source text: as §1, §2

Another data set deals with E. coli K12. The data set is described as above. Conditions: Escherichia coli. Type of data set: cell-based.
Source text: as §1, §2

The subject of a further data set is S. aureus NCTC 8325. Described as above. Format: cell-based. To be noted: Staphylococcus aureus.
Source text: as §1, §2

Data set [2] deals with S. aureus DSM18827 (MRSA). Described as above. Type of data set: cell-based. Conditions: Staphylococcus aureus, DSM 11827 / DSM 18827 / MRSA, read-out: Minimum inhibitory concentration (MIC).
Source text: as §1, §2

Another data set has as its system Candida albicans. The description is as above. Type of data set: cell-based. Conditions: read-out: Minimum inhibitory concentration (MIC).
Source text: as §1, §2

The next data set has as its system B. subtilis. The data set is described as above. Type of data set: cell-based. To be noted: Bacillus subtilis, read-out: Minimum inhibitory concentration (MIC).
Source text: as §1, §2

The subject of data set [3] is developing neurons (LUHMES d2-3). The data set can be described thus: Toxicological testing with developing neurons in the LUHMES d2-3 assay. Format: cell-based. To be noted: 0-100 μM tested. The method, then:
Example 14: Toxicological Testing with Developing Neurons in the LUHMES d2-3 Assay
Compounds 3, 5, and 10 were toxicologically tested with developing neurons in the LUHMES d2-3 assay at concentrations varying from 0 to 100 μM (cf. FIGS. 4 to 6). […] In the case of compound 5 (cf. FIG. 5), general cytotoxicity (orange line) and inhibition of neurite outgrowth each started above 40 μM (green line). For compound 10 (cf. FIG. 6), general cytotoxicity (orange line) started at 80 μM and inhibition of neurite outgrowth started at 40 μM (green line).

For data set [4], the target named is elastase (LasB) (Pseudomonas aeruginosa, UniProt P14756). The data set can be described thus: In vitro elastase assay with fluorogenic substrate Abz-peptide-Nba. Type of data set: biochemical, P. aeruginosa. The method, then: Example 16: In Vitro Inhibition of Elastase (LasB) with Compounds 6, 7, and 12
An in-vitro elastase assay was performed according to Cathcart et al. (G. R. Cathcart, B. F. Gilmore, B. Greer, P. Harriott, B. Walker, Bioorganic & medicinal chemistry letters 2009, 19, 6230-6232). For a typical in vitro elastase assay 82 μL buffer (0.05 M TRIS HCl, 2.5 mM CaCl2, pH=7.2) and 5 μL of compound 6 solved in DMSO were added in a 96 well plate. 10 μL of 3 μg/mL elastase (solved in the same Tris/CaCl2 buffer) were added and mixed with the compound. After incubation for 10 min at room temperature, 3 μL fluorogenic substrate Abz-peptide-Nba (2-aminobenzoyl-Ala-Gly-Leu-Ala-4-nitrobenzylamide) in DMF were added and the fluorescence measured for 90 min in one minute steps (excitation at 330 nm, emission at 460 nm). The slope of the resulting graph was used to calculate the enzymatic activity.

Data set [5] deals with T1, elastase (LasB) (Pseudomonas aeruginosa, UniProt Q02RJ6).
T1 construct: 1.4 mL of the culture was centrifuged and the supernatant filtered through a sterile filter; endogenous in cells; host or cells: P. aeruginosa PA14 culture (supernatant)
Nature of the data set: In situ inhibition of elastolytic activity (Elastin-Congo Red) with life cultures of P. aeruginosa PA14. Type of data set: cell-based. The method, then:
Example 17: In Situ Inhibition of Elastase (LasB) with Compound 6
The in situ efficacy of Compound 6 was investigated by measuring the concentration dependent inhibition of elastolytic activity with life cultures of P. aeruginosa. The elastase assay was performed according to Calfee et al. (M. W. Calfee, J. P. Coleman, E. C. Pesci, Proceedings of the National Academy of Sciences of the United States of America 2001, 98, 11633-11637.) 10 μL of an overnight culture of PA14 was added to 3 mL of PTSB medium together with 15 μL of Compound 6 dissolved in DMSO at different stock concentrations. The culture was incubated for 24 h at 37° C. and 200 rpm. 1.4 mL of the culture was centrifuged and the supernatant filtered through a sterile filter. Thereafter, 0.5 mL ECR-buffer (0.1 M Tris HCl, 1 mM CaCl2, pH=7.2) together with 10 mg Elastin-Congo Red was added to 0.5 ml of the sterile flow-through and the mixture incubated for 3 h at 37° C. and 1600 rpm. After the incubation, 0.1 mL Na2EDTA (0.12 M) was added to quench the enzymatic reaction. After mixing, the solution was centrifuged (10 min at 6000 rpm) and 0.2 mL of the supernatant measured at 495 nm in a 96 well plate. It was observed that Compound 6 is an efficient inhibitor of elastolytic activity in situ resulting in sigmoidal inhibition behaviour with an IC50 of 40 μM (cf. FIG. 9).

In general, IC50 refers to the concentration that gives 50% inhibition. High values mean a need for much substance, low ones inhibition by little substance.

“And” between values parts separate entries of the source, which are not always exact repeats. Identical values can stand only once. Like-named read-outs stand apart in the source and are kept apart here.

Sequence of elastase (LasB) (Pseudomonas aeruginosa, UniProt P14756) (P14756 198-498): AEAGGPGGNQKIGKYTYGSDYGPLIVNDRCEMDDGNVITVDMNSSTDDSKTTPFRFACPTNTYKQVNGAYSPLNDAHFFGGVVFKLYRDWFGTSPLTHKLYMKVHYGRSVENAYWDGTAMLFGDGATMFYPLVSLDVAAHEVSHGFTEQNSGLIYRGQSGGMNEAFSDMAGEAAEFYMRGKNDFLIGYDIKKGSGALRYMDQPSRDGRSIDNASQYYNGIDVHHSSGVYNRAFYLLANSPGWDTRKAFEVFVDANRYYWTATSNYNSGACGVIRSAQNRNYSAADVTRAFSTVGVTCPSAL
T1 sequence (Q02RJ6 198-498): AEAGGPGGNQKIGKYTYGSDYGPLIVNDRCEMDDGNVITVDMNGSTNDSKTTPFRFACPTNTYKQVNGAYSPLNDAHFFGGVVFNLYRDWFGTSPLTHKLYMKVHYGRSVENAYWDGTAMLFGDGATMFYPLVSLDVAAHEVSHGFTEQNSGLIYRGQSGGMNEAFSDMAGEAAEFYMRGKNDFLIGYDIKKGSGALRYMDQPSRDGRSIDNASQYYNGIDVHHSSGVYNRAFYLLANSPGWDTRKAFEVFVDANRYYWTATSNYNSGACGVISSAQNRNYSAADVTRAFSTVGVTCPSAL

`CCCCCCCc1c/c(=N/O)c2ccccc2[nH]1` [Compound 3, 2-heptylquinolin-4(1H)-one oxime]: the “Concentration at which cell toxicity starts” value in [1] was determined as 40 µM. The MIC in the data set on S. aureus USA 300 (MRSA) is 60 µM and 15.5 µg/mL; with S. aureus Mu50 (MRSA) (MRSA), 60 µM and 15.5 µg/mL; against E. coli K12, 300 µM and 78 µg/mL; in the data set with S. aureus NCTC 8325 (NCTC8325, read-out: Minimum inhibitory concentration (MIC)) it was 60 µM and 15.5 µg/mL; in data set [2] it was 60 µM and 15.5 µg/mL; in the data set on Candida albicans it was 100 µM and 25.8 µg/mL. Further, the MIC in the data set on B. subtilis was 50 µM and 12.9 µg/mL. Also, the “Concentration at which general cytotoxicity starts” value in [3] is on record as “above 10 μM”. For the same molecule, the “Concentration at which inhibition of neurite outgrowth starts” value in data set [3] is “above 2.5 μM”.

Consider `CCCCCCCc1[nH]c2ccccc2c(=S)c1O` [Compound 6, 2-heptyl-3-hydroxyquinoline-4(1H)-thione], for which the IC50 against elastase (LasB) [4] was found to be 4 µM; at elastase (LasB) [5], 40 µM. The MIC with S. aureus USA 300 (MRSA) (S. aureus USA 300 (MRSA), LB medium) is 150 µM and 41.3 µg/mL; with S. aureus Mu50 (MRSA) (S. aureus Mu50 (MRSA), LB medium), 150 µM and 41.3 µg/mL; with S. aureus NCTC 8325 (NCTC8325, S. aureus NCTC 8325, LB medium, read-out: Minimum inhibitory concentration (MIC)) it was 100 µM and 27.5 µg/mL; in [2] (S. aureus DSM18827 (also printed DSM11827), MRSA, LB medium) it was 150 µM and 41.3 µg/mL; with Candida albicans (C. albicans, LB medium), 100 µM and 27.5 µg/mL; in the data set with B. subtilis (B. subtilis, LB medium) it was 125 µM and 34.4 µg/mL.

For the origin of these results see patent US10961196B2, “Compounds for use as an anti-bacterial or anti-fungal agent and as a zinc sensor” (UNIVERSITÄT KONSTANZ, priority 2016, dated 2021).
